# Measurements: patent publication US20030057401A1, “Inhibitor compositions” (priority 1999, published 2003)
# System: sessile SRB colonies
# Experiment: Experiment 4: biocidal efficacy for planktonic and sessile bacteria, studs from Robins device, 3 hr contact
# Type: cell-based, Sulphate Reducing Bacteria (SRB)
# Details: if it can penetrate the glycocalyx
# Method: The purpose of killing planktonic SRB is to prevent the formation of sessile SRB colonies. A series of tests has been conducted in which viable sessile cultures have been treated with a range of biocides. Synthetic Seawater [table] Additional nutrients were added to water to encourage bacteria growth. Experiment 4 is a comparison of biocidal efficacy for planktonic and sessile bacteria. Viable SRB colonies are established on studs in a Robins device. The studs are removed, washed in sterile sea water and treated with solutions containing the test biocide. After exposures of 1, 3, 4, 8 or extended periods, coupons are rinsed, scraped and suspended in fresh synthetic sea water. Serial dilutions and ATP analyses are conducted on the samples to determine bacterial activity.
smiles,measurement,value
O=CCCCC=O [glutaraldehyde],comparative biocidal efficacy on sessile SRB colonies,more effective biocide than quaternary amines
